# In patent US20250382583A1, “ENHANCED METHODS FOR INDUCING AND MAINTAINING NAIVE HUMAN PLURIPOTENT STEM CELLS” (Washington University, priority 2021, published 2025):
# Key:
# [1] = test system: H9-naïve hESCs; assay: qRT-PCR for naïve-specific transcripts (KLF17, DNMT3L) during naïve maintenance; type: cell-based, human; conditions: in XAV/Gö/Y; KLF17 and DNMT3L
# Description: (§1) Defining alternative naïve maintenance media: To define the activity of selected hit compounds during extended naïve culture, naïve hESCs derived from the primed state and maintained in 5i/L/A were dissociated with Accutase (Thermo Fischer Scientific, A1110501) and 1.5×10^5 single cells were seeded in 5i/L/A media on MEF-coated plates. After 24 hours, 5i/L/A media were switched to experimental maintenance conditions to validate hits from the screen. After 4-6 days the cells were split in a 1:2 or 1:3 ratio and further maintained for 4-6 days before analysis by FACS, qRT-PCR, AP staining, and/or RNA-seq. 5i/L/A media in which the MEK inhibitor PD0325901 was replaced with 5 μM AZ628 are represented as alternative 5i/L/A (a5i/L/A). FXGY, AXGY, AXGYU, PXGY, and GXGY media were prepared in serum-free N2B27 media supplemented with 1 μM PD166866, 5 μM AZ628, 5 μM AZ628 and 1 μM UNC0638, 1 μM PD0325901, and 5 μM GDC-0994, respectively, together with 2 μM XAV939, 2 μM Gö6983, and 10 μM Y-27632. During these assays cells were fed with fresh media every second day and cultured in 5% O2, 5% CO2 at 37° C. Detailed information on conditions used for defining alternative naïve maintenance media can be found in Tables 1-6.
# (§2) Quantitative reverse transcriptase PCR (qRT-PCR): Total RNA was isolated using the E.Z.N.A. total RNA kit I and cDNA synthesis was performed from total RNA using the high-capacity cDNA reverse transcription kit (Applied Biosystems, 4368814). qRT-PCR was performed using PowerUp SYBR Green Master Mix (Applied Biosystems, A25743) on the StepOnePlus Real-Time PCR System (Applied Biosystems). Gene expression was normalized to RPLP0 and analyzed using the ΔCt method. Error bars represent the standard deviation (SD) of the mean of technical replicates.
# [2] = test system: WIBR3 OCT4-ΔPE-GFP+-naïve hESCs; assay: Extended maintenance assay, OCT4-ΔPE-GFP reporter activity (imaging, qRT-PCR); type: cell-based, human; conditions: in the presence of ROCK inhibitor (Y) alone; 2.5 and 5 μM; two passages
# Description: as §1, §2
# For this purpose, WIBR3 OCT4-ΔPE-GFP+-naïve hESCs that were generated in the absence of reprogramming transgenes were used using the 5i/L/A cocktail. […] Compounds were tested at two different concentrations (2.5 and 5 μM), and cells were maintained for two passages (FIG. 2A).
# [3] = test system: p-ERK1/2; conditions: stated as known; cited from earlier work
# [4] = test system: H9-naïve hESCs; assay: Extended maintenance assay, flow cytometry for naïve-specific CD75 and SUSD2; type: cell-based, human; conditions: serum-free media supplemented with XGY, 2.5 μM compound
# Description: as §1
# Flow cytometry: Primed hESCs were single-cell dissociated using TrypLE Express, while Accutase was used for naïve hESCs. Cells were resuspended in fibroblast medium and centrifuged. Cell pellets were washed in 5 mL ice-cold PBS. The cells were then resuspended in […] fresh ice-cold FACS buffer (PBS supplemented with 5% FBS), and incubated with antibodies for 30 minutes on ice in the dark. The following antibodies were used: anti-SUSD2-PE (1:100), anti-CD75-eFluor 660 (1:100), anti-CD90-PE (1:100), anti-ITGA6-FITC (1:100) and EGFR-APC (1:25). Post-incubation the cells were washed once with 1 mL ice-cold PBS, resuspended in fresh 500 μl FACS buffer, and passed through a […] cell strainer into round bottom FACS tubes (Corning, #352235). Flow cytometry was performed using a BD LSRFortessa X-20 and the data were analyzed using the FlowJo software.
compound,measurement,setting,value
"Cn1nccc1Nc1nccc(-c2ccn([C@H](CO)c3ccc(Cl)c(F)c3)c(=O)c2)n1 [GDC-0994, (S)-1-(1-(4-chloro-3-fluorophenyl)-2-hydroxyethyl)-4-(2-((1-methyl-1H-pyrazol-5-yl)amino)pyrimidin-4-yl)pyridin-2(1H)-one]",concentration effective to maintain expression of naïve-specific transcripts (titration),[1],5 µM
same,activity in maintaining OCT4-ΔPE-GFP reporter activity after passaging,[2],showed activity
same,effect on phosphorylation of cellular ERK1/2,[3],not to alter
same,sustaining CD75/SUSD2-positive cells over multiple passages,[4],robustly sustained
